Measured values: patent US12371428B2 (Exelixis, Inc., priority 2019, dated 2025)

Experiments:
[1] = target: KDR (phospho-KDR, VEGF165-stimulated HUVEC cells) (Homo sapiens (Human), UniProt P35968); experiment: KDR autophosphorylation ELISA in HUVEC cells (Example G); type: cell-based; conditions: cellular activity; KDR autophosphorylation ELISA in HUVEC cells
How it was run: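 Inhibition of VEGF165-driven KDR autophosphorylation is measured in primary human umbilical vein endothelial cells after 24 h serum deprivation. Compound preincubation lasts 1 h before a 5-minute challenge with 100 ng/mL ligand, and phosphorylated receptor is then measured by ELISA in the lysates.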

[2] = target: Human MER (residues 528-999) (Homo sapiens (Human), UniProt Q12866); experiment: Human Mer kinase assay, HTRF KinEase (Example C-2); type: biochemical; conditions: protocol of Example C-2
How it was run: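 HTRF KinEase TK assay with MER 528-999 (1 ng/well) in enzymatic buffer plus 5 mM MgCl2 and 1 mM DTT, biotinylated peptide substrate and ATP at Km (40 μM), 3% DMSO final, 60 min at room temperature. Stopped with EDTA detection mix (SA-XL665, TK antibody-Eu3+), read at 665/620 nm after 60 min; IC50 from 10-point 4-parameter fit, normalized to DMSO and 1 μM reference.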

[3] = target: Mer (phospho-Mer, MERTK-transfected 293A cells) (Homo sapiens (Human), UniProt Q12866); experiment: Mer autophosphorylation ELISA in transient transfected 293A cells (Example H); type: cell-based; conditions: cellular activity; Mer autophosphorylation ELISA in transient transfected 293A cells
How it was run: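 MERTK-transfected 293A; 8-pt dose, 1 h, serum-free, 0.3% DMSO. Cold lysis with orthovanadate and protease/phosphatase inhibitors. Phospho-Mer by DuoSet IC ELISA vs phospho-Mer standard. IC50: 4-PL fit; DMSO = 100%, reference inhibitor = 0%.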

[4] = target: Human KDR (residues 790-1356) (Homo sapiens (Human), UniProt P35968); experiment: Human KDR kinase assay, HTRF KinEase (Example B-2); type: biochemical; conditions: protocol of Example B-2
How it was run: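 Ten compound concentrations (3% DMSO final) were pre-plated, then KDR (790-1356) with biotinylated peptide in Mg/Mn/DTT buffer was added; ATP at Km (4.0 μM) started a 40 min room-temperature reaction. Detection used Eu-TK antibody and SA-XL665 in EDTA buffer; activity normalized to DMSO and reference inhibitor, IC50 by logistic fit.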

Chain of Human KDR (residues 790-1356) (P35968 790-1356): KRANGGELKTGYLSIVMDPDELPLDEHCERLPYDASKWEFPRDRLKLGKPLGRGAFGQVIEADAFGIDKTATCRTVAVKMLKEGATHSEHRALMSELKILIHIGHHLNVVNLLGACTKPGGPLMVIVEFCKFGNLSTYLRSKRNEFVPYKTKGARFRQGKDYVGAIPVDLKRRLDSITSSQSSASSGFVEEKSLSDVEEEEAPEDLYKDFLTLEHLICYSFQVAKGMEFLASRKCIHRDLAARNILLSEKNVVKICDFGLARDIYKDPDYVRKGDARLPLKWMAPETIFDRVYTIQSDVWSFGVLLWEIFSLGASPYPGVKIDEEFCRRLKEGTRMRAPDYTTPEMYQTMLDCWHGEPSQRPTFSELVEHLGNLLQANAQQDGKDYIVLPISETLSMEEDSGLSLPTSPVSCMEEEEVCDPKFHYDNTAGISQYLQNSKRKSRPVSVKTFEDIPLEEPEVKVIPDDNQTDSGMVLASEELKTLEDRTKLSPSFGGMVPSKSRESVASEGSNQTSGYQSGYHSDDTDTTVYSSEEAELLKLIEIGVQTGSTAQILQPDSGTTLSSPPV
Chain of Human MER (residues 528-999) (Q12866 528-999): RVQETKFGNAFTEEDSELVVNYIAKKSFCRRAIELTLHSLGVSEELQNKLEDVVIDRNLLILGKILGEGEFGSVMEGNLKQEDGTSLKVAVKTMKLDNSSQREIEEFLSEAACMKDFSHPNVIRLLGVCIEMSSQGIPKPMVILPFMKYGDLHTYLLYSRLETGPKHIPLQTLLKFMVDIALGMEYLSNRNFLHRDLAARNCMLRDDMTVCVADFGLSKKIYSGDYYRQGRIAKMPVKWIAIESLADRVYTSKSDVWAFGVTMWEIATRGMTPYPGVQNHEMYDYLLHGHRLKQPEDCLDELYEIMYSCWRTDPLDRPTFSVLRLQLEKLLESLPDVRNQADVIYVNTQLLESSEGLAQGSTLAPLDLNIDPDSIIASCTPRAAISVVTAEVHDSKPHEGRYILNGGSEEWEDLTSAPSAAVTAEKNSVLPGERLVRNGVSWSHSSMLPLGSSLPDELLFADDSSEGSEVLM
Chain of Mer (phospho-Mer, MERTK-transfected 293A cells) (Q12866 21-999): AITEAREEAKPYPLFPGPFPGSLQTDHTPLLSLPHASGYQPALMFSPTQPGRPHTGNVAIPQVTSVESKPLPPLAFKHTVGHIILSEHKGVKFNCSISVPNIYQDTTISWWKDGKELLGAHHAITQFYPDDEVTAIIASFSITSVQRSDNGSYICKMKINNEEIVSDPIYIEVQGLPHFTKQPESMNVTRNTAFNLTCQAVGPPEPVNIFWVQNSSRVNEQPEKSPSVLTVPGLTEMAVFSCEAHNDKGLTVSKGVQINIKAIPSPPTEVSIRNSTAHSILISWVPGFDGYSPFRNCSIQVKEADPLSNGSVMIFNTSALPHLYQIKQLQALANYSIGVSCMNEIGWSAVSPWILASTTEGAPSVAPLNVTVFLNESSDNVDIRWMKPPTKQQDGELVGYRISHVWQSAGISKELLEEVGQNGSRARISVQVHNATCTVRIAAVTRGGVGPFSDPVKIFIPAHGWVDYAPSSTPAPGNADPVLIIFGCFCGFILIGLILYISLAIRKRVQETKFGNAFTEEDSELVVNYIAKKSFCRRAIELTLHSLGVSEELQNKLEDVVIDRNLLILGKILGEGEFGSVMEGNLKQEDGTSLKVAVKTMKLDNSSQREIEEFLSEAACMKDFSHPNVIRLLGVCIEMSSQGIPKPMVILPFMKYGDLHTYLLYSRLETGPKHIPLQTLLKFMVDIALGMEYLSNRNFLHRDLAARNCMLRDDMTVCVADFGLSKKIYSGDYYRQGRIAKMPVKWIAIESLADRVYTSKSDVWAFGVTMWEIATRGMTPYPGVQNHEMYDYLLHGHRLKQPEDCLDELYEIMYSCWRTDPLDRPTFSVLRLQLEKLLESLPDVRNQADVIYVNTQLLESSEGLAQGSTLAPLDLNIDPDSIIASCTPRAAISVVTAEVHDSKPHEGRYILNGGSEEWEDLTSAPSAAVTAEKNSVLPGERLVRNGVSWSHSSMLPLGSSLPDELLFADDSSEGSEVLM
Chain of KDR (phospho-KDR, VEGF165-stimulated HUVEC cells) (P35968 20-1356): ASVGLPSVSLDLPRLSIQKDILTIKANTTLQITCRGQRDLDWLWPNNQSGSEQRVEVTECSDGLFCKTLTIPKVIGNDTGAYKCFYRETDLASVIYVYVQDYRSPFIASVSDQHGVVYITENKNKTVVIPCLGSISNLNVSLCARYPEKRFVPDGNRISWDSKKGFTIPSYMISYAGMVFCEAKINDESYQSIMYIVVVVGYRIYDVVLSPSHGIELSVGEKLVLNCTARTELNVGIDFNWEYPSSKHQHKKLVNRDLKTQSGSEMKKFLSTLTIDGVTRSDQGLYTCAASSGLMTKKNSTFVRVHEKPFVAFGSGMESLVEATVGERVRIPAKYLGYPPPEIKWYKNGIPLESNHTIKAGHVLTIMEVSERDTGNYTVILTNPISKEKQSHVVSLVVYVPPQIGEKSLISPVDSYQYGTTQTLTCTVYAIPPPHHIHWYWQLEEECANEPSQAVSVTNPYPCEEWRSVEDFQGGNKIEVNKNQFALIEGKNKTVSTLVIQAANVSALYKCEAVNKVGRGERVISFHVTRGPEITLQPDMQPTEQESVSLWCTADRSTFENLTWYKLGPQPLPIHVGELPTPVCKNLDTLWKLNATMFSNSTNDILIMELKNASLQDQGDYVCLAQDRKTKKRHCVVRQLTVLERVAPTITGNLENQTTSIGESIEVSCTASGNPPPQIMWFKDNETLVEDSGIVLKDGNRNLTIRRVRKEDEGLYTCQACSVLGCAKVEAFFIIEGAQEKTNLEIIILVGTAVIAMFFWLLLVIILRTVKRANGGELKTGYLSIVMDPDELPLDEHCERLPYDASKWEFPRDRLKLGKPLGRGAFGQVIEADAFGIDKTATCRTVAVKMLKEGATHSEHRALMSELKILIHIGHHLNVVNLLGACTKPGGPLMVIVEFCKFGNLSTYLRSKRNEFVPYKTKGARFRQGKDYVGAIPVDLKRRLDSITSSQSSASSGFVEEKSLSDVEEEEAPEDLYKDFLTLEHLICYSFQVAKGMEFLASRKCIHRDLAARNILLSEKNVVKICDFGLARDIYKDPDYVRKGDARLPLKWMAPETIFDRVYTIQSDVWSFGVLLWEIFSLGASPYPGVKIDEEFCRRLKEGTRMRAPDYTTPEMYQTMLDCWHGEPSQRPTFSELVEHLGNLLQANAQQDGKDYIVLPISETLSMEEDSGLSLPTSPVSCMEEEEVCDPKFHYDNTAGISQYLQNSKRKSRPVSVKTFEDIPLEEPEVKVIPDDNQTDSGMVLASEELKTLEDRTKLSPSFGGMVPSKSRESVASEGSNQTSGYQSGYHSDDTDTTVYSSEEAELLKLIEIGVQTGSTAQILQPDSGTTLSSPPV

Row | IC50 [1] [nM] | IC50 [2] [nM] | IC50 [3] [nM] | IC50 [4] [nM] | SMILES
1 | < 100 | < 100 | < 100 | > 300 | Cc1ncc(C(=O)Nc2ccc(Oc3ccnc4cnc(Cl)cc34)c(F)c2)c(O)c1-c1ccc(F)cc1 [Compound 641, N-[4-[(6-chloro-1,7-naphthyridin-4-yl)oxy]-3-fluorophenyl]-5-(4-fluorophenyl)-4-hydroxy-6-methylpyridine-3-carboxamide]
2 | < 100 | < 100 | < 100 | < 100 | Cc1ncc(C(=O)Nc2ccc(Oc3ccnc4cnccc34)c(F)c2)c(O)c1-c1ccc(F)cc1 [Compound 642, N-[3-fluoro-4-(1,7-naphthyridin-4-yloxy)phenyl]-5-(4-fluorophenyl)-4-hydroxy-6-methylpyridine-3-carboxamide]
3 | < 100 | < 100 | < 100 | < 100 | Cc1ncc(C(=O)Nc2ccc(Oc3ccnc4cnccc34)cc2)c(O)c1-c1ccc(F)cc1 [Compound 643, 5-(4-fluorophenyl)-4-hydroxy-6-methyl-N-[4-(1,7-naphthyridin-4-yloxy)phenyl]pyridine-3-carboxamide]
4 | < 100 | < 100 | < 100 | 100 to 300 | COc1cc2c(Oc3ccc(NC(=O)c4cnc(C)c(-c5ccc(F)cc5)c4O)cc3)ccnc2cn1 [Compound 644, 5-(4-fluorophenyl)-4-hydroxy-N-[4-[(6-methoxy-1,7-naphthyridin-4-yl)oxy]phenyl]-6-methylpyridine-3-carboxamide]
5 | < 100 | < 100 | < 100 | < 100 | Cc1cc2c(Oc3ccc(NC(=O)c4cnc(C)c(-c5ccc(F)cc5)c4O)cc3F)ccnc2cn1 [Compound 645, N-[3-fluoro-4-[(6-methyl-1,7-naphthyridin-4-yl)oxy]phenyl]-5-(4-fluorophenyl)-4-hydroxy-6-methylpyridine-3-carboxamide]
